In the NIST ThermoML archive (doi:10.1016/j.tca.2014.07.025):
Numbers after ± are expanded uncertainties.

Columns and labels:
[1] = mn = molality of the nth substance listed, in mol/kg; conditions: 100 kPa, Liquid; for speed of sound: Frequency=3 MHz, Sing-around technique in a fixed-path interferometer; for mass density: Vibrating tube method
[2] = 100 kPa, Liquid; for speed of sound: Frequency=3 MHz, Sing-around technique in a fixed-path interferometer; for mass density: Vibrating tube method

CC1(C)S[C@@H]2[C@H](NC(=O)[C@H](N)c3ccc(O)cc3)C(=O)N2[C@H]1C(=O)O [amoxicillin] + O
[1]
Conditions	mass density, 305.15 K [kg/m3]	mass density, 310.15 K [kg/m3]	mass density, 315.15 K [kg/m3]	speed of sound, 305.15 K [m/s]	speed of sound, 310.15 K [m/s]	speed of sound, 315.15 K [m/s]
m1 = 0.0005	995.743 ± 0.6	994.045 ± 0.6	992.153 ± 0.6	1514.7 ± 1.3	1524.6 ± 1.3	1532.9 ± 1.3
m1 = 0.002	995.924 ± 0.6	994.23 ± 0.6	992.334 ± 0.6	1515 ± 1.3	1524.8 ± 1.3	1533.2 ± 1.3
m1 = 0.0035	996.115 ± 0.6	994.412 ± 0.6	992.522 ± 0.6	1514.4 ± 1.3	1524.3 ± 1.3	1532.5 ± 1.3

CC(C)C[C@H](NC(=O)CN)C(=O)O [glycyl-L-leucine] + O
[1]
Conditions	mass density, 305.15 K [kg/m3]	mass density, 310.15 K [kg/m3]	mass density, 315.15 K [kg/m3]	speed of sound, 305.15 K [m/s]	speed of sound, 310.15 K [m/s]	speed of sound, 315.15 K [m/s]
m1 = 0.00196	995.189 ± 0.63	993.501 ± 0.63	991.607 ± 0.63	1514 ± 1.5	1523.9 ± 1.5	1532.4 ± 1.5
m1 = 0.00595	995.39 ± 0.63	993.701 ± 0.63	991.806 ± 0.63	1514.8 ± 1.5	1524.6 ± 1.5	1533 ± 1.5
m1 = 0.00811	995.498 ± 0.63	993.809 ± 0.63	991.913 ± 0.63	1515 ± 1.5	1524.9 ± 1.5	1533.1 ± 1.5
m1 = 0.01008	995.597 ± 0.63	993.908 ± 0.63	992.01 ± 0.63	1515.2 ± 1.5	1525.2 ± 1.5	1533.3 ± 1.5
m1 = 0.02014	996.102 ± 0.63	994.41 ± 0.63	992.508 ± 0.63	1516.4 ± 1.5	1526.2 ± 1.5	1534.5 ± 1.5
m1 = 0.05085	997.635 ± 0.63	995.935 ± 0.63	994.019 ± 0.63	1521.5 ± 1.5	1531.4 ± 1.5	1539.2 ± 1.5
m1 = 0.1002	1000.07 ± 0.63	998.358 ± 0.63	996.42 ± 0.63	1528.8 ± 1.5	1538.2 ± 1.5	1545.9 ± 1.5
m1 = 0.1991	1004.86 ± 0.63	1003.12 ± 0.63	1001.14 ± 0.62	1540.2 ± 1.5	1548.9 ± 1.5	1555.8 ± 1.5
m1 = 0.299	1009.55 ± 0.63	1007.79 ± 0.63	1005.77 ± 0.63	1552 ± 1.5	1560 ± 1.5	1566.6 ± 1.5

O [water]
[2]
Conditions	mass density [kg/m3]	speed of sound [m/s]
305.15 K	995.09 ± 0.11	1513.5 ± 1.3
310.15 K	993.403 ± 0.11	1523.5 ± 1.3
315.15 K	991.51 ± 0.11	1532.2 ± 1.3
